ChEMBL document CHEMBL1275261, “Nationwide investigation of extended-spectrum beta-lactamases, metallo-beta-lactamases, and extended-spectrum oxacillinases produced by ceftazidime-resistant Pseudomonas aeruginosa strains in France” (2010)
Values after ≈ are worked out from the molar mass of the structure shown.

Assays:
Type in all cases: functional
Pseudomonas aeruginosa [1] = assay: Antibacterial activity against IMP-18 producing Pseudomonas aeruginosa isolate P85 exhibiting PFGE K pattern by 2-fold agar dilution method
Pseudomonas aeruginosa [2] = assay: Antibacterial activity against SHV-2a producing Pseudomonas aeruginosa isolate P60 exhibiting PFGE H pattern by 2-fold agar dilution method
Pseudomonas aeruginosa [3] = assay: Antibacterial activity against VIM-2 producing Pseudomonas aeruginosa isolate P67 exhibiting PFGE J pattern by 2-fold agar dilution method
Pseudomonas aeruginosa [4] = assay: Antibacterial activity against OXA-28 producing Pseudomonas aeruginosa isolate P174 exhibiting PFGE E pattern by 2-fold agar dilution method
Pseudomonas aeruginosa [5] = assay: Antibacterial activity against OXA-19 producing Pseudomonas aeruginosa isolate P9 exhibiting PFGE A pattern by 2-fold agar dilution method
Pseudomonas aeruginosa [6] = assay: Antibacterial activity against OXA-30, PSE-1, VIM-2 and PER-1 producing Pseudomonas aeruginosa isolate P19 exhibiting PFGE F pattern by 2-fold agar dilution method
Pseudomonas aeruginosa [7] = assay: Antibacterial activity against SHV-2a producing Pseudomonas aeruginosa isolate P102 exhibiting PFGE H pattern by 2-fold agar dilution method
Pseudomonas aeruginosa [8] = assay: Antibacterial activity against VEB-1a and OXA-10 producing Pseudomonas aeruginosa isolate P151 exhibiting PFGE I pattern by 2-fold agar dilution method
Pseudomonas aeruginosa [9] = assay: Antibacterial activity against PER-1 producing Pseudomonas aeruginosa isolate P170 exhibiting PFGE G pattern by 2-fold agar dilution method
Pseudomonas aeruginosa [10] = assay: Antibacterial activity against OXA-10, PSE-1, VIM-2 and PER-1 producing Pseudomonas aeruginosa isolate P22 exhibiting PFGE F pattern by 2-fold agar dilution method
Pseudomonas aeruginosa [11] = assay: Antibacterial activity against OXA-2 and OXA-19 producing Pseudomonas aeruginosa isolate P66 exhibiting PFGE C pattern by 2-fold agar dilution method
Pseudomonas aeruginosa [12] = assay: Antibacterial activity against OXA-19 producing Pseudomonas aeruginosa isolate P11 exhibiting PFGE A pattern by 2-fold agar dilution method
Pseudomonas aeruginosa [13] = assay: Antibacterial activity against OXA-19 producing Pseudomonas aeruginosa isolate P122 exhibiting PFGE A pattern by 2-fold agar dilution method
Pseudomonas aeruginosa [14] = assay: Antibacterial activity against OXA-30, PSE-1, VIM-2 and PER-1 producing Pseudomonas aeruginosa isolate P19 exhibiting PFGE F pattern by 2-fold agar dilution method in presence of 4 ug/ml Tazobactam
Pseudomonas aeruginosa [15] = assay: Antibacterial activity against SHV-2a producing Pseudomonas aeruginosa isolate P102 exhibiting PFGE H pattern by 2-fold agar dilution method in presence of 4 ug/ml Tazobactam
Pseudomonas aeruginosa [16] = assay: Antibacterial activity against OXA-10, PSE-1, VIM-2 and PER-1 producing Pseudomonas aeruginosa isolate P22 exhibiting PFGE F pattern by 2-fold agar dilution method in presence of 4 ug/ml Tazobactam
Pseudomonas aeruginosa [17] = assay: Antibacterial activity against VIM-2 producing Pseudomonas aeruginosa isolate P67 exhibiting PFGE J pattern by 2-fold agar dilution method in presence of 4 ug/ml Tazobactam
Pseudomonas aeruginosa [18] = assay: Antibacterial activity against OXA-28 producing Pseudomonas aeruginosa isolate P174 exhibiting PFGE E pattern by 2-fold agar dilution method in presence of 4 ug/ml Tazobactam
Pseudomonas aeruginosa [19] = assay: Antibacterial activity against OXA-2 and OXA-19 producing Pseudomonas aeruginosa isolate P66 exhibiting PFGE C pattern by 2-fold agar dilution method in presence of 4 ug/ml Tazobactam
Pseudomonas aeruginosa [20] = assay: Antibacterial activity against IMP-18 producing Pseudomonas aeruginosa isolate P85 exhibiting PFGE K pattern by 2-fold agar dilution method in presence of 4 ug/ml Tazobactam
Pseudomonas aeruginosa [21] = assay: Antibacterial activity against SHV-2a producing Pseudomonas aeruginosa isolate P60 exhibiting PFGE H pattern by 2-fold agar dilution method in presence of 4 ug/ml Tazobactam
Pseudomonas aeruginosa [22] = assay: Antibacterial activity against OXA-19 producing Pseudomonas aeruginosa isolate P9 exhibiting PFGE A pattern by 2-fold agar dilution method in presence of 4 ug/ml Tazobactam
Pseudomonas aeruginosa [23] = assay: Antibacterial activity against OXA-19 producing Pseudomonas aeruginosa isolate P122 exhibiting PFGE A pattern by 2-fold agar dilution method in presence of 4 ug/ml Tazobactam
Pseudomonas aeruginosa [24] = assay: Antibacterial activity against PER-1 producing Pseudomonas aeruginosa isolate P170 exhibiting PFGE G pattern by 2-fold agar dilution method in presence of 4 ug/ml Tazobactam
Pseudomonas aeruginosa [25] = assay: Antibacterial activity against VEB-1a and OXA-10 producing Pseudomonas aeruginosa isolate P151 exhibiting PFGE I pattern by 2-fold agar dilution method in presence of 4 ug/ml Tazobactam
Pseudomonas aeruginosa [26] = assay: Antibacterial activity against OXA-19 producing Pseudomonas aeruginosa isolate P11 exhibiting PFGE A pattern by 2-fold agar dilution method in presence of 4 ug/ml Tazobactam

Structure (SMILES): CO/N=C(\C(=O)N[C@@H]1C(=O)N2C(C(=O)[O-])=C(C[N+]3(C)CCCC3)CS[C@H]12)c1csc(N)n1
- MIC (Pseudomonas aeruginosa [1]): 256 µg/mL (≈ 533 µM)
- MIC (Pseudomonas aeruginosa [2]): 64 µg/mL (≈ 133 µM)
- MIC (Pseudomonas aeruginosa [3]): 64 µg/mL (≈ 133 µM)
- MIC (Pseudomonas aeruginosa [4]): 32 µg/mL (≈ 66.6 µM)
- MIC (Pseudomonas aeruginosa [5]): 64 µg/mL (≈ 133 µM)
- MIC (Pseudomonas aeruginosa [6]): 128 µg/mL (≈ 266 µM)
- MIC (Pseudomonas aeruginosa [7]): 64 µg/mL (≈ 133 µM)
- MIC (Pseudomonas aeruginosa [8]): > 512 µg/mL
- MIC (Pseudomonas aeruginosa [9]): 64 µg/mL (≈ 133 µM)
- MIC (Pseudomonas aeruginosa [10]): 128 µg/mL (≈ 266 µM)
- MIC (Pseudomonas aeruginosa [11]): 16 µg/mL (≈ 33.3 µM)

Structure (SMILES): NCC[C@H](O)C(=O)N[C@@H]1C[C@H](N)[C@@H](O[C@H]2O[C@H](CN)[C@@H](O)[C@H](O)[C@H]2O)[C@H](O)[C@H]1O[C@H]1O[C@H](CO)[C@@H](O)[C@H](N)[C@H]1O [AMIKACIN]
- MIC (Pseudomonas aeruginosa [1]): > 512 µg/mL
- MIC (Pseudomonas aeruginosa [2]): 32 µg/mL (≈ 54.6 µM)
- MIC (Pseudomonas aeruginosa [3]): 32 µg/mL (≈ 54.6 µM)
- MIC (Pseudomonas aeruginosa [4]): 16 µg/mL (≈ 27.3 µM)
- MIC (Pseudomonas aeruginosa [5]): 16 µg/mL (≈ 27.3 µM)
- MIC (Pseudomonas aeruginosa [12]): 8 µg/mL (≈ 13.7 µM)
- MIC (Pseudomonas aeruginosa [6]): 64 µg/mL (≈ 109 µM)
- MIC (Pseudomonas aeruginosa [7]): 128 µg/mL (≈ 219 µM)
- MIC (Pseudomonas aeruginosa [13]): 8 µg/mL (≈ 13.7 µM)
- MIC (Pseudomonas aeruginosa [8]): 128 µg/mL (≈ 219 µM)
- MIC (Pseudomonas aeruginosa [9]): 32 µg/mL (≈ 54.6 µM)
- MIC (Pseudomonas aeruginosa [10]): 64 µg/mL (≈ 109 µM)
- MIC (Pseudomonas aeruginosa [11]): 128 µg/mL (≈ 219 µM)

Structure (SMILES): C[C@H]1[C@H](NC(=O)/C(=N\OC(C)(C)C(=O)O)c2csc(N)n2)C(=O)N1S(=O)(=O)O [AZTREONAM]
- MIC (Pseudomonas aeruginosa [1]): 16 µg/mL (≈ 36.7 µM)
- MIC (Pseudomonas aeruginosa [2]): 32 µg/mL (≈ 73.5 µM)
- MIC (Pseudomonas aeruginosa [3]): 32 µg/mL (≈ 73.5 µM)
- MIC (Pseudomonas aeruginosa [4]): 32 µg/mL (≈ 73.5 µM)
- MIC (Pseudomonas aeruginosa [5]): 16 µg/mL (≈ 36.7 µM)
- MIC (Pseudomonas aeruginosa [6]): 128 µg/mL (≈ 294 µM)
- MIC (Pseudomonas aeruginosa [7]): 32 µg/mL (≈ 73.5 µM)
- MIC (Pseudomonas aeruginosa [8]): > 512 µg/mL
- MIC (Pseudomonas aeruginosa [9]): 128 µg/mL (≈ 294 µM)
- MIC (Pseudomonas aeruginosa [10]): 256 µg/mL (≈ 588 µM)
- MIC (Pseudomonas aeruginosa [11]): 16 µg/mL (≈ 36.7 µM)

Structure (SMILES): CC(C)(O/N=C(\C(=O)N[C@@H]1C(=O)N2C(C(=O)[O-])=C(C[n+]3ccccc3)CS[C@H]12)c1csc(N)n1)C(=O)O [CEFTAZIDIME]
- MIC (Pseudomonas aeruginosa [1]): > 512 µg/mL
- MIC (Pseudomonas aeruginosa [2]): 64 µg/mL (≈ 117 µM)
- MIC (Pseudomonas aeruginosa [3]): 128 µg/mL (≈ 234 µM)
- MIC (Pseudomonas aeruginosa [4]): 256 µg/mL (≈ 468 µM)
- MIC (Pseudomonas aeruginosa [5]): 256 µg/mL (≈ 468 µM)
- MIC (Pseudomonas aeruginosa [12]): 256 µg/mL (≈ 468 µM)
- MIC (Pseudomonas aeruginosa [6]): 256 µg/mL (≈ 468 µM)
- MIC (Pseudomonas aeruginosa [7]): 64 µg/mL (≈ 117 µM)
- MIC (Pseudomonas aeruginosa [13]): 256 µg/mL (≈ 468 µM)
- MIC (Pseudomonas aeruginosa [8]): > 512 µg/mL
- MIC (Pseudomonas aeruginosa [9]): 256 µg/mL (≈ 468 µM)
- MIC (Pseudomonas aeruginosa [10]): 256 µg/mL (≈ 468 µM)
- MIC (Pseudomonas aeruginosa [11]): 64 µg/mL (≈ 117 µM)

Structure (SMILES): O=C(O)c1cn(C2CC2)c2cc(N3CCNCC3)c(F)cc2c1=O [CIPROFLOXACIN]
- MIC (Pseudomonas aeruginosa [1]): 128 µg/mL (≈ 386 µM)
- MIC (Pseudomonas aeruginosa [2]): 32 µg/mL (≈ 96.6 µM)
- MIC (Pseudomonas aeruginosa [3]): 128 µg/mL (≈ 386 µM)
- MIC (Pseudomonas aeruginosa [4]): 128 µg/mL (≈ 386 µM)
- MIC (Pseudomonas aeruginosa [5]): 64 µg/mL (≈ 193 µM)
- MIC (Pseudomonas aeruginosa [12]): 32 µg/mL (≈ 96.6 µM)
- MIC (Pseudomonas aeruginosa [7]): 32 µg/mL (≈ 96.6 µM)
- MIC (Pseudomonas aeruginosa [13]): 64 µg/mL (≈ 193 µM)
- MIC (Pseudomonas aeruginosa [8]): 512 µg/mL (≈ 1550 µM)
- MIC (Pseudomonas aeruginosa [9]): 64 µg/mL (≈ 193 µM)
- MIC (Pseudomonas aeruginosa [11]): 128 µg/mL (≈ 386 µM)

Structure (SMILES): C[C@@H](O)[C@H]1C(=O)N2C(C(=O)O)=C(SCCNC=N)C[C@H]12 [IMIPENEM ANHYDROUS]
- MIC (Pseudomonas aeruginosa [1]): 64 µg/mL (≈ 214 µM)
- MIC (Pseudomonas aeruginosa [2]): 1 µg/mL (≈ 3.34 µM)
- MIC (Pseudomonas aeruginosa [3]): 512 µg/mL (≈ 1710 µM)
- MIC (Pseudomonas aeruginosa [4]): 4 µg/mL (≈ 13.4 µM)
- MIC (Pseudomonas aeruginosa [5]): 16 µg/mL (≈ 53.4 µM)
- MIC (Pseudomonas aeruginosa [12]): 8 µg/mL (≈ 26.7 µM)
- MIC (Pseudomonas aeruginosa [6]): 128 µg/mL (≈ 428 µM)
- MIC (Pseudomonas aeruginosa [7]): 16 µg/mL (≈ 53.4 µM)
- MIC (Pseudomonas aeruginosa [13]): 8 µg/mL (≈ 26.7 µM)
- MIC (Pseudomonas aeruginosa [8]): 32 µg/mL (≈ 107 µM)
- MIC (Pseudomonas aeruginosa [9]): 4 µg/mL (≈ 13.4 µM)
- MIC (Pseudomonas aeruginosa [10]): 128 µg/mL (≈ 428 µM)
- MIC (Pseudomonas aeruginosa [11]): 1 µg/mL (≈ 3.34 µM)

Structure (SMILES): CCN1CCN(C(=O)N[C@@H](C(=O)N[C@@H]2C(=O)N3[C@@H]2SC(C)(C)[C@@H]3C(=O)O)c2ccccc2)C(=O)C1=O [PIPERACILLIN]
- MIC (Pseudomonas aeruginosa [14]): 256 µg/mL
- MIC (Pseudomonas aeruginosa [15]): 128 µg/mL
- MIC (Pseudomonas aeruginosa [16]): 256 µg/mL
- MIC (Pseudomonas aeruginosa [17]): 32 µg/mL
- MIC (Pseudomonas aeruginosa [18]): 128 µg/mL
- MIC (Pseudomonas aeruginosa [19]): 32 µg/mL
- MIC (Pseudomonas aeruginosa [20]): 128 µg/mL
- MIC (Pseudomonas aeruginosa [21]): 128 µg/mL
- MIC (Pseudomonas aeruginosa [22]): 128 µg/mL
- MIC (Pseudomonas aeruginosa [23]): 64 µg/mL
- MIC (Pseudomonas aeruginosa [24]): 128 µg/mL
- MIC (Pseudomonas aeruginosa [25]): 256 µg/mL
- MIC (Pseudomonas aeruginosa [26]): 64 µg/mL

Structure (SMILES): CC1(C)S[C@@H]2[C@H](NC(=O)[C@H](C(=O)O)c3ccsc3)C(=O)N2[C@H]1C(=O)O [TICARCILLIN]
- MIC (Pseudomonas aeruginosa [1]): > 512 µg/mL
- MIC (Pseudomonas aeruginosa [2]): > 512 µg/mL
- MIC (Pseudomonas aeruginosa [3]): > 512 µg/mL
- MIC (Pseudomonas aeruginosa [4]): 128 µg/mL (≈ 333 µM)
- MIC (Pseudomonas aeruginosa [5]): 512 µg/mL (≈ 1330 µM)
- MIC (Pseudomonas aeruginosa [12]): 256 µg/mL (≈ 666 µM)
- MIC (Pseudomonas aeruginosa [6]): > 512 µg/mL
- MIC (Pseudomonas aeruginosa [7]): > 512 µg/mL
- MIC (Pseudomonas aeruginosa [13]): 256 µg/mL (≈ 666 µM)
- MIC (Pseudomonas aeruginosa [8]): > 512 µg/mL
- MIC (Pseudomonas aeruginosa [9]): 512 µg/mL (≈ 1330 µM)
- MIC (Pseudomonas aeruginosa [10]): > 512 µg/mL
- MIC (Pseudomonas aeruginosa [11]): 512 µg/mL (≈ 1330 µM)
